Test results from patent US20250066370A1, “BICYCLIC TRIAZINE DERIVATIVES FOR THE TREATMENT OF CANCER” (DEUTSCHES KREBSFORSCHUNGSZENTRUM, priority 2022, published 2025).

Tests used:
[1] = biological target: CDK12 (Homo sapiens (Human), UniProt Q9NYV4); test: CDK12 nuclear protein level: immunofluorescence/high content analysis in CAL-120 cells; assay type: cell-based; details: 24 h, nuclear CDK12 staining intensity, median, read-out: CDK12 degradation IF, DC50 - [mol/l] (median)
Procedure: In the context of the present invention, the term “DC50 CDK12” refers to the DC50 values obtained according to the assay described in this section (7) herein below, i.e. the DC50 values for the degradation of CDK12.
CAL-120 human breast cancer cells (DSMZ ACC 459) are seeded in 1536-well microtiter plates (800 cells per well) containing 50 nanoL of compounds in Dose-Response. Control wells received DMSO or Example 4. Plates are then incubated for 24 h at 37° C. in an humidified incubator and fixed with 4% PFA for 10 min. Then immunofluorescence (IF) against CDK12 (CellSignalling CDK12 Antibody #11973, rabbit, 1:100 dilution) is performed using standard IF protocols. Cells are then stained with Hoechst 33342 (Life Technologies, H-1399, 0.1 microg/ml) and imaged on an automated confocal microscopy system (e.g. Perkin Elmer Opera Phenix). Nuclear and cytoplasmic intensity as well as the nuclear/cytoplasmic intensity ratio is determined by automated image analysis using custom generated scripts (MetaXpress). Data is then transferred to Genedata Screener software, normalized to DMSO and control and DC50 values (degrading concentration to achieve 50% reduction of nuclear CDK12 staining intensity relative to controls) are reported.

[2] = test system: CAL-120, human breast adenocarcinoma cells; test: Proliferation assay CAL-120 (crystal violet); assay type: cell-based; details: 96 h, CAL-120 parental cells, 4 days, median, read-out: Prolif-CAL-120, IC50 - [mol/l] (median)
Procedure: Human tumour cells were originally obtained from the American Type Culture Collection (ATCC), or from the Deutsche Sammlung von Mikroorganismen und Zellkulturen (DSMZ, German Collection of Microorganisms and Cell Cultures). Cultivated tumour cells (CAL-120, human breast adenocarcinoma cells, DSMZ ACC-459; MDA-MB-231, human breast cancer cells, ATCC HTB-26) were plated at a density of 4,000 cells/well in a 96-well multitier plate in 200 microL of their respective growth medium supplemented 10% fetal calf serum. After 24 hours, the cells of one plate (zero-point plate) were stained with crystal violet (see below), while the medium of the other plates was supplemented with the test substances in various concentrations (0 micromol/L, as well as in the range of 0.01-10 micromol/L; the final concentration of the solvent dimethyl sulfoxide was adjusted to 0.1%) using a Tecan HP D300 Digital Dispenser. The cells were incubated for 4 days in the presence of test substances. Cell proliferation was determined by staining the cells with crystal violet: the cells were fixed by adding 20 microL/measuring point of an 11% glutaric aldehyde solution for 15 minutes at room temperature. After three washing cycles of the fixed cells with water, the plates were dried at room temperature. The cells were stained by adding 100 microL/measuring point of a 0.1% crystal violet solution (pH 3.0). After three washing cycles of the stained cells with water, the plates were dried at room temperature. The dye was dissolved by adding 100 microL/measuring point of a 10% acetic acid solution. The extinction was determined by photometry at a wavelength of 595 nm. The change of cell number, in percent, was calculated by normalization of the measured values to the extinction values of the zero-point plate (=0%) and the extinction of the untreated (0 μM) cells (=100%). The IC50 values (inhibitory concentration at 50% of maximal effect) were determined by means of a 4 parameter fit.

[3] = biological target: CDK2/CyclinE (Homo sapiens (Human), UniProt P24941); test: CDK2/CycE kinase assay (TR-FRET); assay type: biochemical; details: 2 mM ATP (high ATP); median; read-out: CDK2/CyclinE, 2 mM ATP (high ATP), IC50 - [mol/l] (median)
Source text: CDK2/CycE-inhibitory activity of compounds of the present invention was quantified employing the CDK2/CycE TR-FRET assay as described in the following paragraphs.
Recombinant fusion proteins of GST and human CDK2 and of GST and human CycE, expressed in insect cells (Sf9) and purified by Glutathion-Sepharose affinity chromatography, were purchased from ProQinase GmbH (Freiburg, Germany). As substrate for the kinase reaction biotinylated peptide biotin-Ttds-YISPLKSPYKISEG (C-terminus in amid form) was used which can be purchased e.g. form the company JERINI peptide technologies (Berlin, Germany).
For the assay 50 nanoL of a 100 fold concentrated solution of the test compound in DMSO was pipetted into a black low volume 384 well microtiter plate or a black 1536 well microtiter plate (both Greiner Bio-One, Frickenhausen, Germany), 2 microL of a solution of CDK2/CycE in aqueous assay buffer [50 millimol/L Tris/HCl PH 8.0, 10 millimol/L MgCl2, 1.0 millimol/L dithiothreitol, 0.1 millimol/L sodium ortho-vanadate, 0.01% (v/v) Nonidet-P40 (Sigma)] were added and the mixture was incubated for 15 min at 22° C. to allow pre-binding of the test compounds to the enzyme before the start of the kinase reaction. Then the kinase reaction was started by the addition of 3 microL of a solution of adenosine-tri-phosphate (ATP, 3.33 millimol/L=>final conc. in the 5 microL assay volume is 2 millimol/L) and substrate (1.25 micromol/L=>final conc. in the 5 microL assay volume is 0.75 micromol/L) in assay buffer and the resulting mixture was incubated for a reaction time of 25 min at 22° C. The concentration of CDK2/CycE was adjusted depending of the activity of the enzyme lot and was chosen appropriate to have the assay in the linear range, typical concentrations were in the range of 10 ng/ml. The reaction was stopped by the addition of 3 microL of a solution of TR-FRET detection reagents (0.333 micromol/L streptavidine-XL665 [Cisbio Bioassays, Codolet, France] and 1.67 nanomol/L anti-RB (pSer807/pSer811)-antibody from BD Pharmingen [#558389] and 2 nanomol/L LANCE EU-W1024 labeled anti-mouse IgG antibody [Perkin-Elmer, product no. AD0077, as an alternative a Terbium-cryptate-labeled anti-mouse IgG antibody from Cisbio Bioassays can be used]) in an aqueous EDTA-solution (167 millimol/L EDTA, 0.2% (w/v) bovine serum albumin in 100 millimol/L HEPES pH 7.5).
The resulting mixture was incubated 1 h at 22° C. to allow the formation of complex between the phosphorylated biotinylated peptide and the detection reagents. Subsequently the amount of phosphorylated substrate was evaluated by measurement of the resonance energy transfer from the Eu-chelate to the streptavidine-XL. Therefore, the fluorescence emissions at 620 nm and 665 nm after excitation at 350 nm was measured in a TR-FRET reader, e.g. a Pherastar (BMG Labtechnologies, Offenburg, Germany) or a Viewlux (Perkin-Elmer). The ratio of the emissions at 665 nm and at […] was taken as the measure for the amount of phosphorylated substrate. The data were normalised (enzyme reaction without inhibitor=0% inhibition, all other assay components but no enzyme=100% inhibition).

Sequence of CDK12 (Q9NYV4 whole entry): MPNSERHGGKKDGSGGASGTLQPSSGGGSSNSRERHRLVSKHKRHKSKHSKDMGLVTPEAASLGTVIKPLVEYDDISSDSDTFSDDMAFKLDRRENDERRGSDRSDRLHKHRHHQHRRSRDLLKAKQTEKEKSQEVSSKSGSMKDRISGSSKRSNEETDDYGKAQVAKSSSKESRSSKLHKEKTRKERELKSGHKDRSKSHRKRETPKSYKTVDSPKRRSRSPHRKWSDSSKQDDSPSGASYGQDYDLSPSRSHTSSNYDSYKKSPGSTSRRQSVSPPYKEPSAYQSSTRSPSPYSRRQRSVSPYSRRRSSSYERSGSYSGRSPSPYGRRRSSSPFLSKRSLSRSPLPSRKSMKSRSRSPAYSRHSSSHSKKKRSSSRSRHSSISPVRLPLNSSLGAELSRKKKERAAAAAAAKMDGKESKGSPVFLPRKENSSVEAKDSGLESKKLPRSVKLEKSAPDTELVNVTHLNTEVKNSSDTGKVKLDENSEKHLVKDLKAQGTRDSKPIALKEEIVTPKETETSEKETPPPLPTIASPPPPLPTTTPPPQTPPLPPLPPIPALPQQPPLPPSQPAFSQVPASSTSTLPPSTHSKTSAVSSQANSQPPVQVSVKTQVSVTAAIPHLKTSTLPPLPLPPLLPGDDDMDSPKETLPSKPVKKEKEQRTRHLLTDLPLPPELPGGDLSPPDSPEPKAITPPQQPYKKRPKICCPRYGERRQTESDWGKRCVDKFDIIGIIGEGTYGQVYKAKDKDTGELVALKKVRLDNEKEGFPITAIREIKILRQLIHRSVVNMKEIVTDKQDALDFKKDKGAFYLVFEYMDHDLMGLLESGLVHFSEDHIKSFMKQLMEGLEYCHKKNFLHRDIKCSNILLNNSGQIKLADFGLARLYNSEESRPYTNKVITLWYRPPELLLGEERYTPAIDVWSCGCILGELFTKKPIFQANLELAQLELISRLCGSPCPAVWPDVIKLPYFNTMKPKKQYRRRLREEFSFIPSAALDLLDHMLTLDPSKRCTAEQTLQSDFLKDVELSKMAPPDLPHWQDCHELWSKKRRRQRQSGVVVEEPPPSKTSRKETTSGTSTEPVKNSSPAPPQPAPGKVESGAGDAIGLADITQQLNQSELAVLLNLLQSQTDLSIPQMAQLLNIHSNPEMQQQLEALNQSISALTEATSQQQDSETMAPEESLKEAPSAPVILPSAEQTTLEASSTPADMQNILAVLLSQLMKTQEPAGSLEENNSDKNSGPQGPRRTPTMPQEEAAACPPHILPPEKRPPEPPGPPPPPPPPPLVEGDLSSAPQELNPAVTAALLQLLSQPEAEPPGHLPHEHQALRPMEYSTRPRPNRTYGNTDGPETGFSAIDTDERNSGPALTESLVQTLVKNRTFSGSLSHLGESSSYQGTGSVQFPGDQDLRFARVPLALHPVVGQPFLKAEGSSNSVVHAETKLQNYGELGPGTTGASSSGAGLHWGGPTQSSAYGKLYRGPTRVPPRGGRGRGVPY
Sequence of CDK12 (O75909 whole entry partner): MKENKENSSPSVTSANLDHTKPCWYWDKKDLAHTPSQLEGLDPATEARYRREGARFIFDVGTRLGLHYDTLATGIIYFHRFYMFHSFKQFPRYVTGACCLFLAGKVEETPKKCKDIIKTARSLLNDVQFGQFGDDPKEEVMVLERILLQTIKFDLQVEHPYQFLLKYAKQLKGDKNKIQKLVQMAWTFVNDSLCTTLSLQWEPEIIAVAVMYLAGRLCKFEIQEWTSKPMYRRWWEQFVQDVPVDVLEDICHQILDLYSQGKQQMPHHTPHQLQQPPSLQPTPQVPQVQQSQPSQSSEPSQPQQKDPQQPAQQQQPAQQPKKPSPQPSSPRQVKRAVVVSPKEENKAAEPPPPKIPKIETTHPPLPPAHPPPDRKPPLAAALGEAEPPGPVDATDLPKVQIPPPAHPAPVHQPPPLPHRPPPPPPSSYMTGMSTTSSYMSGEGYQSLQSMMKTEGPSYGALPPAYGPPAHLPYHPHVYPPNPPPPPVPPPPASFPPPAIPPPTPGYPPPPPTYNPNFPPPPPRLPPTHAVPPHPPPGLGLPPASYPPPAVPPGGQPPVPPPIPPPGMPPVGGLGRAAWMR

Row | DC50 [1] [nM] | IC50 [3] [nM] | Structure (SMILES) | IC50 [2] [nM]
1 | > 1000 | 3120 | COc1ccc(-c2nnc(CNc3nc(N4CCOCC4)nc4c(C(F)(F)F)cnn34)[nH]2)cn1 [Example 15, N-{[5-(6-methoxypyridin-3-yl)-4H-1,2,4-triazol-3-yl]methyl}-2-(morpholin-4-yl)-8-(trifluoromethyl)pyrazolo[1,5-a][1,3,5]triazin-4-amine] | 355
2 | > 1000 | 6390 | COc1ccc(-c2cnc(CNc3nc(N4CCOCC4)nc4c(C(F)(F)F)cnn34)[nH]2)cn1 [Example 21, N-{[5-(6-methoxypyridin-3-yl)-1H-imidazol-2-yl]methyl}-2-(morpholin-4-yl)-8-(trifluoromethyl)pyrazolo[1,5-a][1,3,5]triazin-4-amine] | 99
3 | > 1000 | 3120 | Cc1ccc(-c2nnc(CNc3nc(N4CCOCC4)nc4c(C(F)(F)F)cnn34)[nH]2)cn1 [Example 22, N-{[5-(6-methylpyridin-3-yl)-4H-1,2,4-triazol-3-yl]methyl}-2-(morpholin-4-yl)-8-(trifluoromethyl)pyrazolo[1,5-a][1,3,5]triazin-4-amine] | 333

Further lines, the compound ahead of its results:

Row | Structure (SMILES) | DC50 [1] [nM] | IC50 [3] [nM] | IC50 [2] [nM]
4 | FC(F)(F)c1ccc(-c2cnc(CNc3nc(N4CCOCC4)nn4c(C(F)(F)F)cnc34)[nH]2)cn1 [Example 12, 2-(morpholin-4-yl)-7-(trifluoromethyl)-N-({5-[6-(trifluoromethyl)pyridin-3-yl]-1H-imidazol-2-yl}methyl)imidazo[2,1-f][1,2,4]triazin-4-amine] | > 1000 | > 20000 | 14.8
5 | FC(F)(F)Oc1ccc(-c2nnc(CNc3nc(N4CCOCC4)nn4c(C(F)(F)F)cnc34)[nH]2)cc1 [Example 14, 2-(morpholin-4-yl)-N-({5-[4-(trifluoromethoxy)phenyl]-4H-1,2,4-triazol-3-yl}methyl)-7-(trifluoromethyl)imidazo[2,1-f][1,2,4]triazin-4-amine] | 665 | > 20000 | 248
6 | FC(F)(F)c1ccc(-c2nnc(CNc3nc(N4CCOCC4)nn4c(C(F)(F)F)cnc34)[nH]2)cn1 [Example 20, 2-(morpholin-4-yl)-7-(trifluoromethyl)-N-({5-[6-(trifluoromethyl)pyridin-3-yl]-4H-1,2,4-triazol-3-yl}methyl)imidazo[2,1-f][1,2,4]triazin-4-amine] | > 1000 | > 5710 | 83.5
7 | Cc1ccc(-c2nnc(CNc3nc(N4CCOCC4)nn4c(C(F)(F)F)cnc34)[nH]2)cn1 [Example 23, N-{[5-(6-methylpyridin-3-yl)-4H-1,2,4-triazol-3-yl]methyl}-2-(morpholin-4-yl)-7-(trifluoromethyl)imidazo[2,1-f][1,2,4]triazin-4-amine] | > 1000 | 2860 | 99.3
